The values below are quoted from earlier work in patent US20140161820A1, “Short-Term Surrogate Test for Investigative Drugs” (priority 2012, published 2014).

Data set [1] addresses T1, cholesteryl ester transfer protein (CETP) (Homo sapiens, UniProt P11597).
T1 construct: host or cells: human trial subjects (endogenous plasma CETP)
T1 sequence (P11597 18-493): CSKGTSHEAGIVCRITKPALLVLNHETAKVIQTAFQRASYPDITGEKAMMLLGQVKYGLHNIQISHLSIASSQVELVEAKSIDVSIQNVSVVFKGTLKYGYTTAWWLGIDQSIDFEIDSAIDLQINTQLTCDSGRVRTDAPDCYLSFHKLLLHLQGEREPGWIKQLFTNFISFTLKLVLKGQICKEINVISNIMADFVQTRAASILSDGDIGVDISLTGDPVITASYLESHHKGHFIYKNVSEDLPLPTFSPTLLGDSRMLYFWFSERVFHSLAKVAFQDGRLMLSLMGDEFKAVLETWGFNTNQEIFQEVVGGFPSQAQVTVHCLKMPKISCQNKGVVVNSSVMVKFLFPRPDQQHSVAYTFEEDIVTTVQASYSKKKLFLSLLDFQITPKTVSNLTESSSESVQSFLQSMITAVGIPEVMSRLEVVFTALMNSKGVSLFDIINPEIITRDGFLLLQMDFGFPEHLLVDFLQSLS
The settings on record: phase III, treatment group receiving a combination of atorvastatin (Lipitor) and torcetrapib.

The next data set has as its system platelets. The conditions noted are these: in vivo.

Take `CCOC(=O)N1c2ccc(C(F)(F)F)cc2[C@@H](N(Cc2cc(C(F)(F)F)cc(C(F)(F)F)c2)C(=O)OC)C[C@H]1CC` [torcetrapib]: the all-cause mortality result in data set [1] was “excessive all-cause mortality”.

Regarding `CC(=O)Oc1ccccc1C(=O)O` [aspirin], the “time by which anti-platelet effects are measurable” value in the data set with platelets is ≤ 60 min.
